This note sets out measurements from ChEMBL document CHEMBL1142595, “Spirolides isolated from Danish strains of the toxigenic dinoflagellate Alexandrium ostenfeldii” (J Nat Prod, 2006).

This data set has as its system Mus musculus. Briefly: Toxicity in ip dosed mouse. The data set is classed as organism-based. To be noted: in vivo.

`C=C1CCCC2=NCC(C)C(C)CC23CCC(C2C=C(C)C(=O)O2)=C(C)C3/C=C(\C)C(O)CC2CCC3(CCC4(OC(CCC4O)C1)O3)O2` (stereo unspecified): the MLD is 0.03 mg/kg.
